The values below are quoted from earlier work in US20130210861A1, “METHODS AND COMPOSITIONS FOR MANAGING CARDIOVASCULAR DISEASE ASSOCIATED WITH CHRONIC KIDNEY DISEASE” (priority 2011, published 2013).

The conditions of data set [1]: Lumina cohort, southern US.
The conditions of data set [2]: Latin American cohort.
For data set [3] the following is noted: HCQ use.
For data set [4] the following is noted: multiple rheumatological cohorts with CVD.
Assay in data set [5]: not given
The source holds these as a separate data set.

The test system of data set [6] is APO E -/- mice.
For data set [7], the system named is matrix metallo proteinase-9 (MMP-9). The conditions noted are these: SLE patients.
The conditions of data set [8]: patients with inflammatory disorders.

Where two headings read alike, the source gives them in different places.

`CCN(CCO)CCCC(C)Nc1ccnc2cc(Cl)ccc12` (centres unmarked) [HCQ, hydroxychloroquine]: for the setting “232 patients, 52-month study period, 7 deaths in those never exposed to HCQ”, the “cardiovascular deaths in patients using HCQ” value was “zero”. Further, under “Spanish trial cohort, HCQ use”, the “HR for death from any cause” value is listed as 0.14. The results for the OR for death in data set [1], in data set [2] and in data set [4] were 0.31, 0.62 and 0.12-0.49, respectively. For the same compound, the “OR for metabolic syndrome” value in [3] is 0.13. Further, the “OR for vascular events” value in data set [3] is recorded as 0.3. For the same compound, the absorption result in data set [5] (200 mg tablet) was “absorbed rapidly and completely”. In data set [5] (200 mg tablet (155 mg of base)), the elimination half-life was 32 to 50 days. Also, in [5] (in vivo), the plasma protein binding entry is reported as “moderate”. In data set [6], the atheroprotection entry was “significant atheroprotection”. Moreover, the MMP-9 secretion result in data set [7] is “inhibited”. Moreover, the fasting glucose result in [8] is “lowered”.
With `CCN(CC)CCCC(C)Nc1ccnc2cc(Cl)ccc12` (centres unmarked) [Chloroquine], the atheroprotection entry in data set [6] was “significant atheroprotection activity”.
